# Assays:
# [1] = test system: SaHEPD (hydroxyethylphosphonate dioxygenase from Streptomyces albus; class II HEPD); assay: steady-state kinetics; format: biochemical; conditions: Fe(II), O2
# [2] = test system: SaHEPD (hydroxyethylphosphonate dioxygenase from Streptomyces albus; class II HEPD); conditions: read-out: Km,HEP; Fe(II), O2; product MPn instead of HMP
smiles,measurement,setting,value
"O=P(O)(O)CCO [2-HEP, 2-hydroxyethylphosphonate]","Km,HEP",[1],"very similar to those of purified wild-type SaHEPD (Fig. S6 and S7, Table S2)"
same,Km,[2],15 ± 2 µM

# Source: paper PMC5901744 (Science (New York, N.Y.), 2017)
